Measured values published in publication PMC2265061, “Compound Cytotoxicity Profiling Using Quantitative High-Throughput Screening” (Environmental Health Perspectives, 2007).
“Also recorded” adds a separate entry of the source. Read-outs that look alike come from different tables or passages of the source.

Tests used:
NIH 3T3 = format: cell-based, Mouse
Protocol: (§1) We measured cell viability using a luciferase-coupled ATP quantitation assay (CellTiter-Glo; Promega, Madison, WI). In this assay, luminescent signal is proportional to amount of ATP and thus to the number of metabolically competent cells; cell injury and death result in a dramatic decrease in intracellular ATP levels ([Crouch et al. 1993]). Cells were dispensed at 1,000–2,000 cells/5 μL/well in tissue-culture treated 1,536-well white/solid bottom assay plates (Greiner Bio-One North America, Monroe, NC) using a Flying Reagent Dispenser (Aurora Discovery, Carlsbad, CA). All but Jurkat cells (which are grown in suspension) were incubated at 37°C for 5–6 hr to allow for cell attachment, followed by addition of compounds via pin tool (Kalypsys, San Diego, CA). […] At the end of the incubation period, 5 μL of CellTiter-Glo reagent was added, plates were incubated at room temperature for 30 min, and the luminescence intensity of each well was determined using a ViewLux plate reader (PerkinElmer, Shelton, CT).
(§2) Compound formatting and qHTS were performed as described previously ([Inglese et al. 2006]).
(§3) Analysis of compound concentration–response data was performed as previously described ([Inglese et al. 2006]). […] Compound activity correlations between different assays or experiments were assessed by calculating the Pearson correlation coefficient. […]

HEK293 = format: cell-based
Protocol: as §1, §2, §3

[1] = test system: Rat kidney proximal tubule; conditions: mean ± SD
Protocol: as §1, §2
(§4) Analysis of compound concentration–response data was performed as previously described ([Inglese et al. 2006]). […] Concentration–response titration points for each compound were fitted to the Hill equation ([Hill 1910]), yielding concentrations of half-maximal inhibition (IC50) and maximal response (efficacy) values. […] Class 1 or 2 compounds were further divided into subclasses based on efficacy and quality of fit (R^2). Compounds with R^2 > 0.9 and high (> 80%) efficacy were designated as subclass a, and compounds with R^2 > 0.9 and low efficacies (30–80%) as subclass b. […] Compound activity correlations between different assays or experiments were assessed by calculating the Pearson correlation coefficient. Hierarchical clustering of compound activity patterns across different assays was performed within Spotfire DecisionSite 8.2 (Spotfire Inc., Cambridge, MA) using the correlation of log IC50 values as the similarity metric.

N2a = conditions: mean ± SD
Protocol: as §1, §2, §4

Jurkat = conditions: mean ± SD
Protocol: as §1, §2, §4

SK-N-SH = conditions: mean ± SD
Protocol: as §1, §2, §4

HUV-EC-C = conditions: mean ± SD
Protocol: as §1, §2, §4

SH-SY5Y = test system: SH-SY5Y
Protocol: as §1, §2, §4

HepG2 = conditions: HepG2, mean ± SD
Protocol: as §1, §2, §4

H-4-II-E = conditions: mean ± SD
Protocol: as §1, §2, §4

MRC-5 = conditions: MRC-5, mean ± SD
Protocol: as §1, §2, §4

BJ = conditions: mean ± SD
Protocol: as §1, §2, §4

Mesangial = conditions: mean ± SD
Protocol: as §1, §2, §4

[2] = test system: 13 human and rodent cell types; conditions: for Species selectivity of cytotoxicity (human versus rodent cell types): nine human versus four rodent cell types
Description: Human renal mesangial cells obtained from adult kidney tissue were kindly provided by J. Kopp (National Institute of Diabetes and Digestive and Kidney Diseases, NIH, Bethesda, MD). Rat renal proximal tubule cells were freshly isolated from rat kidney by In Vitro ADMET Laboratories, LLC (Rockville, MD). All cells chosen for testing represent target tissues of interest in toxicology from both human and rodent sources; most were transformed lines, but some were nontransformed or primary cells. All are well-characterized cells, produce uniform populations, are relatively easy to culture, and are amenable to a 1,536-well format.
as §1, with “In this assay, luminescent signal is proportional to amount of ATP and thus to the number of metabolically competent cells; cell injury and death result in a dramatic decrease in intracellular ATP levels ([Crouch et al. 1993]).” left out
Class 1 or 2 compounds were further divided into subclasses based on efficacy and quality of fit (R^2). Compounds with R^2 > 0.9 and high (> 80%) efficacy were designated as subclass a, and compounds with R^2 > 0.9 and low efficacies (30–80%) as subclass b. […] Compound activity correlations between different assays or experiments were assessed by calculating the Pearson correlation coefficient. Hierarchical clustering of compound activity patterns across different assays was performed within Spotfire DecisionSite 8.2 (Spotfire Inc., Cambridge, MA) using the correlation of log IC50 values as the similarity metric.

HepG2 cells = test: Real-time cell electronic sensing (RT-CES) cytotoxicity assay; format: cell-based, Human; conditions: HepG2, RT-CES impedance, 0.14 to 100 μM
Protocol: HepG2 cells in the presence of compounds at concentrations from 0.14 to 100 μM were monitored by measurements of electrical impedance (ACEA Biosciences Inc., San Diego, CA) every 10 min for the first hour, then every hour for 70–90 hr.

Compound `CC/C(=C(\c1ccccc1)c1ccc(OCCN(C)C)cc1)c1ccccc1` [tamoxifen] has a Hill coefficient (NIH 3T3; NIH 3T3, mean ± SD) of 2.6 ± 0.8, a Hill coefficient (HEK293; HEK293, mean ± SD) of 3.8 ± 1.0 and a Hill coefficient [1] of 4.7 ± 0.3. For the same compound, the Hill coefficient (N2a) was 4.0 ± 0.8, the Hill coefficient (Jurkat) was 2.0 ± 0.2 and the Hill coefficient (SK-N-SH) was 3.4 ± 0.7. The Hill coefficient (HUV-EC-C) was 4.2 ± 0.5, the Hill coefficient (SH-SY5Y; SH-SY5Y, mean ± SD) was 3.1 ± 0.7 and the Hill coefficient (HepG2) was 4.4 ± 0.5. It also gave a Hill coefficient (H-4-II-E) of 2.7 ± 0.8, a Hill coefficient (MRC-5) of 2.9 ± 1.2 and a Hill coefficient (BJ) of 3.1 ± 1.0. The Hill coefficient (Mesangial) was 2.4 ± 0.8.

With `COc1cccc2c1C(=O)c1c(O)c3c(c(O)c1C2=O)C[C@@](O)(C(=O)CO)C[C@@H]3O[C@H]1C[C@H](N)[C@H](O)[C@H](C)O1` [doxorubicin] the “Cytotoxicity pattern across the 13 cell types” value ([2]; 0.59 nM to 92 μM, 40 hr) was “toxic in all cell types; also recorded: cytotoxic in all 13 cell types” and the “Exposure time to complete cytotoxicity” value (HepG2 cells) was 35 h.

For `C[C@@H]1C[C@@H]([C@H](O)CC2CC(=O)NC(=O)C2)C(=O)[C@@H](C)C1` [cycloheximide], the “Cytotoxicity pattern across the 13 cell types” value ([2]; human, rat, mouse) was “cytotoxic in all but two cell types (MRC-5 and SH-SY5Y)” and the “Kinetic response (cell index over time)” value (HepG2 cells) was “inhibited cell proliferation but did not decrease cell number below what was present at the time of addition”.

For `CN(C)c1ccc(C(=C2C=CC(=[N+](C)C)C=C2)c2ccccc2)cc1.CN(C)c1ccc(C(=C2C=CC(=[N+](C)C)C=C2)c2ccccc2)cc1.O=C(O)C(=O)O.O=C([O-])C(=O)O.O=C([O-])C(=O)O` [malachite green oxalate], the “Cytotoxicity pattern across the 13 cell types” value [2] was “cytotoxicity in all cell types at similar concentrations”.

For `C[C@@H]1CC[C@@]2(OC1)O[C@H]1[C@@H](O)[C@H]3[C@@H]4CC[C@H]5C[C@@H](O[C@@H]6O[C@H](CO)[C@H](O[C@@H]7O[C@H](CO)[C@@H](O)[C@H](O[C@@H]8OC[C@@H](O)[C@H](O)[C@H]8O)[C@H]7O[C@@H]7O[C@H](CO)[C@H](O)[C@H](O[C@@H]8O[C@H](CO)[C@@H](O)[C@H](O)[C@H]8O)[C@H]7O)[C@H](O)[C@H]6O)[C@H](O)C[C@]5(C)[C@H]4CC[C@]3(C)[C@H]1[C@@H]2C` [digitonin], the “Cytotoxicity pattern across the 13 cell types” value ([2]; 0.59 nM to 92 μM, 40 hr) was “cytotoxicity in all cell types at similar concentrations; also recorded: cytotoxic in all 13 cell types; also recorded: uniformly toxic across all cell types” and the “Exposure time to full cytotoxicity” value (HepG2 cells) was 10 min.

In the case of `CN(C)c1ccc(C(=C2C=CC(=[N+](C)C)C=C2)c2ccc(N(C)C)cc2)cc1.[Cl-]` [hexamethyl-p-rosaniline chloride], the “Cytotoxicity pattern across the 13 cell types” value [2] is reported as “cytotoxicity in all cell types at similar concentrations”.

With `CN(C)c1ccc(N=Nc2ccccc2)cc1` [dimethylaminoazobenzene] the “Species selectivity of cytotoxicity (human versus rodent cell types)” value (“Species selectivity of cytotoxicity” below) [2] was “more toxic to rodent cells”.

In the case of `CN(C)C(=S)SSC(=S)N(C)C` [tetra-methylthiuram disulfide], the “Potency in SH-SY5Y relative to the next most responsive cell type” value (SH-SY5Y; more potent in SH-SY5Y) is reported as 250 fold.

`C[C@H]1O[C@@H](O[C@H]2[C@@H](O)C[C@H](O[C@H]3[C@@H](O)C[C@H](O[C@H]4CC[C@@]5(C)[C@H](CC[C@@H]6[C@@H]5C[C@@H](O)[C@]5(C)[C@@H](C7=CC(=O)OC7)CC[C@]65O)C4)O[C@@H]3C)O[C@@H]2C)C[C@H](O)[C@@H]1O` [digoxin] was tested, and the “Species selectivity of cytotoxicity” value [2] was “more toxic to human cells”.

In the case of `Cc1ccc2c(c1[N+](=O)[O-])C(=O)c1ccccc1C2=O` [2-methyl-1-nitroanthraquinone], the Cell type-selective toxicity (HEK293; in HEK293 cells) is reported as “selective toxicity”.

For `[CH3][Hg][Cl]` [methyl mercuric (II) chloride], the “Potency in NIH 3T3 relative to the next most responsive cell type” value (NIH 3T3) was 50 fold.

With `[K+].[K+].[O]=[Cr](=[O])([O-])[O][Cr](=[O])(=[O])[O-]` [potassium dichromate] the “Cytotoxicity pattern across the 13 cell types” value [2] was “cytotoxic in all 13 cell types” and the “Exposure time to complete cytotoxicity” value (HepG2 cells) was 35 h.

For `Cl.N=C1C=CC(=C(c2ccc(N)cc2)c2ccc(N)cc2)C=C1` [pararosaniline hydrochloride], the “Cytotoxicity pattern across the 13 cell types” value ([2]; 0.59 nM to 92 μM, 40 hr) was “cytotoxicity in all cell types at similar concentrations”.

In the case of `O=C(Nc1ccccc1)Nc1ccccc1` [diphenylurea], the “Species selectivity of cytotoxicity” value [2] is reported as “toxicity in cells from one species but not the other”.

For `CC(=O)[O][Hg][c]1ccccc1` [phenyl mercuric acetate], the “Cytotoxicity pattern across the 13 cell types” value [2] was “uniformly toxic across all cell types”.
